Measurements: publication PMC5999399 (Journal of medicinal chemistry, 2017)

Assays:
[1] = target: T1, human MC1R (hMC1R) (Homo sapiens, UniProt Q01726); settings: [125I]NDP-α-MSH displacement at 10 μM; ref previously published data; cited from earlier work
[2] = target: T2, human MC5R (hMC5R) (Homo sapiens, UniProt P33032); settings: cAMP at 10 μM, in relation to MT-II; ref previously published data; cited from earlier work
[3] = target: T2, human MC5R (hMC5R); settings: ref previously published data, cited from earlier work; for hMC5R % BE: [125I]NDP-α-MSH displacement at 10 μM
[4] = target: T1, human MC1R (hMC1R); settings: cAMP at 10 μM, in relation to MT-II; ref previously published data; cited from earlier work
[5] = target: T3, human MC4R (hMC4R) (Homo sapiens, UniProt P32245); settings: [125I]NDP-α-MSH displacement at 10 μM; ref previously published data; cited from earlier work
[6] = target: T3, human MC4R (hMC4R); settings: cAMP at 10 μM, in relation to MT-II; ref previously published data; cited from earlier work
[7] = target: T4, human MC3R (hMC3R) (Homo sapiens, UniProt P41968); settings: [125I]NDP-α-MSH displacement at 10 μM; ref previously published data; cited from earlier work
[8] = target: T1, human MC1R (hMC1R); test: Adenylate cyclase; assay type: cell-based; settings: EC50 ratio
[9] = target: T4, human MC3R (hMC3R); settings: ref previously published data, cited from earlier work; for hMC3R % max effect: cAMP at 10 μM, in relation to MT-II

T3 sequence (P32245 whole entry): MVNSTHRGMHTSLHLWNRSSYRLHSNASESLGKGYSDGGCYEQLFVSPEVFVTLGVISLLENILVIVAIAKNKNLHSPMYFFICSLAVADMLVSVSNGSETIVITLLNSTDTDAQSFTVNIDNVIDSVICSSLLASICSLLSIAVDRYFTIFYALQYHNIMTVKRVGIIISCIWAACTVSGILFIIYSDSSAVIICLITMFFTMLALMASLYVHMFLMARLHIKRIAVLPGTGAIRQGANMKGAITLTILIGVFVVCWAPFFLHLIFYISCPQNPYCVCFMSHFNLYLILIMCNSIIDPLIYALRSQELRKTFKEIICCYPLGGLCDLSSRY
T1 sequence (Q01726 whole entry): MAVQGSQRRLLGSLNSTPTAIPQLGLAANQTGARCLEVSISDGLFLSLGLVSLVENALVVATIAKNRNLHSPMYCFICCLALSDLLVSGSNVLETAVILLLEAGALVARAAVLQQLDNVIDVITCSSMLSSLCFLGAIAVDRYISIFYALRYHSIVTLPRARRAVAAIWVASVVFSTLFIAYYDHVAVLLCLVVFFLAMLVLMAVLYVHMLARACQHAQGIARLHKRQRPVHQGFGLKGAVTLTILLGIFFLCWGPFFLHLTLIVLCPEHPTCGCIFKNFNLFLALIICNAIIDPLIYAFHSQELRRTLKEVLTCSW
T2 sequence (P33032 whole entry): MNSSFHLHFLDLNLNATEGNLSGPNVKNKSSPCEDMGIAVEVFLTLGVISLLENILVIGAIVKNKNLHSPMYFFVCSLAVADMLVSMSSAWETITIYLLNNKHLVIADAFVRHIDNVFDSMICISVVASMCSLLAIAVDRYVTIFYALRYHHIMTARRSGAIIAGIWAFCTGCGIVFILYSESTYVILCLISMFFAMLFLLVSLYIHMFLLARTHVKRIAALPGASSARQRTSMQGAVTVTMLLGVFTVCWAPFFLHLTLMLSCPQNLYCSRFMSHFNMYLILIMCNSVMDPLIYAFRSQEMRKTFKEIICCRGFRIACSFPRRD
T4 sequence (P41968 whole entry): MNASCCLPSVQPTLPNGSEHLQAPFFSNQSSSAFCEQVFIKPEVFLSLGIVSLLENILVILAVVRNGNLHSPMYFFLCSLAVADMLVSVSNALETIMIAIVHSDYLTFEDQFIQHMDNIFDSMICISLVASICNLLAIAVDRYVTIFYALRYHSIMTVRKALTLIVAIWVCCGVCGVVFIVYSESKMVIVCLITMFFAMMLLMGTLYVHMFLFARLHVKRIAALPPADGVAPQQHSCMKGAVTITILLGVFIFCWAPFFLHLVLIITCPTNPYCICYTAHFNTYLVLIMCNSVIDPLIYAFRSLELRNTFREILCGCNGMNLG

In the case of “Ac-Tyr^1-Val^2-Nle^3-Gly^4-His^5-D-Phe^6-Arg^7-Trp^8-Asp^9-Arg^10-Phe^11-Gly^12-NH2 [Compound 13]”, the “hMC1R % BE” value [1] is given as 100%, the “hMC5R % max effect” value [2] is given as 100% and the “hMC5R % BE” value [3] is given as 100%. For the same substance, the “hMC1R % max effect” value [4] was 100%, the “hMC4R % BE” value [5] was 100% and the “hMC4R % max effect” value [6] was 100%. The “hMC3R % BE” value [7] was 100%.

For “H-Tyr^1-Val^2-Met^3-Gly^4-His^5-Phe^6-Arg^7-Trp^8–Asp^9-Arg^10-Phe^11-Gly^12-NH2 [Compound 12]”, the “hMC1R % BE” value [1] is listed as 100%, the “increase in potency to hMC1R compared to γ-MSH” value [8] is listed as 3 fold and the “hMC5R % BE” value [3] is listed as 100%. The “hMC1R % max effect” value [4] was 100%, the “hMC4R % BE” value [5] was 100% and the “hMC4R % max effect” value [6] was 76%. For the same substance, the “hMC3R % BE” value [7] was 100%.

For “H-Tyr-Val-Nle-Gly-His-D-Nal(2)-Arg-D-Trp-Asp-Arg-Phe-Gly-NH2 [Compound 1]”, the “hMC5R % max effect” value [2] is listed as 6%, the “hMC5R % BE” value [3] is listed as 100% and the IC50 ([3]; read-out: hMC5R IC50, 50% specific binding) is listed as 3.5 ± 0.5 nM. For the same substance, the “hMC3R % max effect” value [9] was 6%, the EC50 ([9]; read-out: hMC3R EC50, cAMP accumulation) was 300 ± 6 nM and the “hMC3R % BE” value [7] was 100%.

In the case of “Ac-Ser-Tyr-Ser-Met-Glu-His-Phe-Arg-Trp-Gly-Lys-Pro-Val-NH2 [Compound 14]”, the “hMC1R % BE” value [1] is listed as 100%, the “hMC5R % max effect” value [2] is listed as 100% and the “hMC5R % BE” value [3] is listed as 100%. The “hMC1R % max effect” value [4] was 100%, the “hMC3R % max effect” value [9] was 100% and the “hMC3R % BE” value [7] was 100%.
